Experiments:
[1] = system: HCV genotype 1a Y93H variant with tyrosine 93 changed to histidine in the NS5A protein; assay: microbe, parasite or virus in culture; format: cell-based; details: genotype 1a Y93H replicon; test compound titrated with compound N47 fixed at 200 nM versus singly
Method in brief: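 In an HCV genotype 1a replicon cell-based assay carrying the NS5A Y93H substitution, BMS-790052 was tested alone and in combination with a fixed amount of a second test compound. The combinations were examined for synergistic activity.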

[2] = system: HCV genotype 1a L31V variant with leucine 31 changed to valine in the NS5A protein; assay: microbe, parasite or virus in culture; format: cell-based; details: genotype 1a L31V replicon; test compound titrated with compound N47 fixed at 200 nM versus singly

| SMILES | Fold-Synergistic G-1a (Y93H) [1] | Fold-Synergistic G-1a (L31V) [2] |
| --- | --- | --- |
| COC(=O)N[C@H](C(=O)N1CCC[C@H]1c1nc2cc(-c3ccc4cc(-c5ccc6[nH]c([C@@H]7CCCN7C(=O)[C@@H](NC(=O)OC)C(C)C)nc6c5)ccc4c3)ccc2[nH]1)C(C)C | >10 fold | >10 fold |
| CN(C)[C@@H](C(=O)Nc1cccc(-c2ncc(-c3ccc4nc([C@@H]5CCCN5C(=O)[C@@H](c5ccccc5)N(C)C)[nH]c4c3)o2)c1)c1ccccc1 | <10 fold | <10 fold |
| COC(=O)N[C@H](C(=O)N1[C@@H]2C[C@@H]2C[C@H]1c1nc2ccc(-c3ccc(-c4ccc5nc([C@@H]6C[C@H]7C[C@H]7N6C(=O)[C@@H](NC(=O)OC)C(C)C)[nH]c5c4)cc3)cc2[nH]1)C(C)C | >100 fold | >10 fold |
| COC(=O)N[C@H](C(=O)N1[C@@H]2C[C@@H]2C[C@H]1c1ncc(-c2cccc(-c3ccc4cc(-c5cnc([C@H]6C[C@@H]7C[C@@H]7N6C(=O)[C@@H](NC(=O)OC)C(C)C)[nH]5)ccc4c3)c2)[nH]1)C(C)C | >10 fold | <10 fold |
| COC(=O)N[C@H](C(=O)N1[C@H](c2nc(-c3ccc(-c4ccc(-c5c[nH]c([C@@H]6C[C@@H]7CCC[C@@H]7N6C(=O)[C@@H](NC(=O)OC)C(C)C)n5)cc4)cc3)c[nH]2)C[C@@H]2CCC[C@@H]21)C(C)C | >100 fold | >100 fold |
| COC(=O)N[C@H](C(=O)N1[C@@H]2C[C@@H]2C[C@H]1c1ncc(-c2ccc(-c3ccc4nc(-c5cnc([C@@H]6C[C@H]7C[C@H]7N6C(=O)[C@@H](NC(=O)OC)C(C)C)[nH]5)ccc4c3)cc2)[nH]1)C(C)C | >10 fold | <10 fold |
| CN(C)[C@@H](C(=O)N1CCC[C@H]1c1ncc(-c2ccc(-c3ccc(-c4cnc([C@@H]5CCCN5C(=O)[C@@H](c5ccccc5)N(C)C)[nH]4)s3)s2)[nH]1)c1ccccc1 | <10 fold | <10 fold |
| COC(=O)N[C@H](C(=O)N1C[C@@H](C)C[C@H]1c1ncc(-c2ccc(-c3ccc4cc(-c5cnc([C@@H]6C[C@H](C)CN6C(=O)[C@@H](NC(=O)OC)C(C)C)[nH]5)ccc4c3)cc2)[nH]1)C(C)C | >10 fold | <10 fold |
| COC(=O)N[C@H](C(=O)N1CCC[C@H]1C(=O)Nc1cc(-c2ncc(-c3ccc4nc([C@@H]5CCCN5C(=O)[C@@H](c5ccccc5)N(C)C)[nH]c4c3)o2)ccc1C)C(C)C | <10 fold | <10 fold |
| COC(=O)N[C@H](C(=O)N1CCCC[C@H]1c1nc(-c2ccc(-c3ccc4cc(-c5c[nH]c([C@@H]6CCCCN6C(=O)[C@@H](NC(=O)OC)C(C)C)n5)ccc4c3)cc2)c[nH]1)C(C)C | <10 fold | >10 fold |
| CN(C)[C@@H](C(=O)N1CCC[C@H]1c1nc(-c2ccc(COc3ccc(-c4c[nH]c([C@@H]5CCCN5C(=O)[C@@H](c5ccccc5)N(C)C)n4)cc3)cc2)c[nH]1)c1ccccc1 | <10 fold | <10 fold |
| COC(=O)N[C@H]1CCC[C@H]2CC[C@@H](c3nc(-c4ccc(-c5ccc(-c6c[nH]c([C@@H]7CC[C@@H]8CCC[C@H](NC(=O)OC)C(=O)N87)n6)cc5)cc4)c[nH]3)N2C1=O | <10 fold | <10 fold |
| COC(=O)N[C@H](C(=O)N1CCCC1c1cn(-c2ccc(-c3ccc(-n4cnc(C5CCCN5C(=O)[C@@H](NC(=O)OC)C(C)C)c4)cc3)cc2)cn1)C(C)C (some centres unmarked) | >10 fold | >10 fold |
| COC(=O)N[C@H](C(=O)N1C2CC2CC[C@H]1c1ncc(-c2ccc(-c3ccc(-c4cnc([C@@H]5CCC6CC6N5C(=O)[C@@H](NC(=O)OC)C(C)C)[nH]4)cc3)cc2)[nH]1)C(C)C (some centres unmarked) [drawing 2291] | >100 fold | >100 fold |
| COC(=O)N[C@H](C(=O)N1[C@@H]2C[C@@H]2C[C@H]1c1ncc(-c2ccc(C#Cc3ccc4c(ccc5[nH]c([C@@H]6C[C@H]7C[C@H]7N6C(=O)[C@@H](NC(=O)OC)C(C)C)nc54)c3)cc2)[nH]1)C(C)C | >10 fold | <10 fold |
| COC(=O)N[C@H](C(=O)N1CCC[C@H]1c1ncc(-c2cccc(C#Cc3cccc(-c4cnc([C@@H]5CCCN5C(=O)[C@@H](NC(=O)OC)C(C)C)[nH]4)c3)c2)[nH]1)C(C)C | >10 fold | >10 fold |

| SMILES | Fold-Synergistic G-1a (Y93H) [1] | Fold-Synergistic G-1a (L31V) [2] |
| --- | --- | --- |
| COC(=O)N[C@H](C(=O)N1C2CC2C[C@H]1c1nc2ccc3cc(C#Cc4ccc5c(ccc6nc([C@@H]7C[C@H]8C[C@H]8N7C(=O)[C@@H](NC(=O)OC)C(C)C)[nH]c65)c4)ccc3c2[nH]1)C(C)C (some centres unmarked) | >100 fold | <10 fold |
| COC(=O)N[C@H](C(=O)N1[C@@H]2C[C@@H]2C[C@H]1c1nc2ccc3cc(C#CC#Cc4ccc5c(ccc6nc([C@@H]7C[C@H]8C[C@H]8N7C(=O)[C@@H](NC(=O)OC)C(C)C)[nH]c65)c4)ccc3c2[nH]1)C(C)C | >10 fold | >10 fold |
| COC(=O)N[C@H](C(=O)N1C[C@@H]2C[C@@H]2[C@H]1c1ncc(-c2ccc(-c3ccc(-c4cnc([C@@H]5[C@H]6C[C@H]6CN5C(=O)[C@@H](NC(=O)OC)C(C)C)[nH]4)cc3)cc2)[nH]1)C(C)C | >100 fold | >100 fold |
| COC(=O)N[C@H](C(=O)N(C)[C@@H](C)c1ncc(-c2ccc(C#Cc3ccc(-c4cnc([C@H](C)N(C)C(=O)[C@@H](NC(=O)OC)C(C)C)[nH]4)cc3)cc2)[nH]1)C(C)C | <10 fold | >10 fold |
| COC(=O)N[C@H](C(=O)N1[C@@H]2C[C@@H]2C[C@H]1c1nc(-c2cccc3c(-c4ccc(-c5cnc([C@@H]6C[C@H]7C[C@H]7N6C(=O)[C@@H](NC(=O)OC)C(C)C)[nH]5)cc4)cccc23)c[nH]1)C(C)C | >100 fold | >100 fold |
| COC(=O)N[C@H](C(=O)N1CCC[C@H]1c1ncc(-c2ccc(C#Cc3ccc4c(ccc5[nH]c([C@@H]6CCCN6C(=O)[C@@H](NC(=O)OC)C(C)C)nc54)c3)cc2)[nH]1)C(C)C | >100 fold | <10 fold |
| COC(=O)N[C@H](C(=O)N1C[C@H](C)C[C@H]1c1ncc(-c2ccc(-c3ccc4cc(-c5cnc([C@@H]6C[C@@H](C)CN6C(=O)[C@@H](NC(=O)OC)C(C)C)[nH]5)ccc4c3)cc2)[nH]1)C(C)C | >10 fold | <10 fold |
| O=C(Nc1ccc(/C=C/c2ccc(NC(=O)[C@@H]3COCN3C(=O)OCc3ccccc3)cc2)cc1)[C@@H]1COCN1C(=O)OCc1ccccc1 | <10 fold | <10 fold |
| COC(=O)N[C@@H](C(=O)N1CCC[C@H]1c1nc(-c2ccc(Oc3ccc(-c4c[nH]c([C@@H]5CCCN5C(=O)[C@H](NC(=O)OC)c5ccccc5)n4)cc3)cc2)c[nH]1)c1ccccc1 | <10 fold | <10 fold |
| COC(=O)NC(C(=O)N1[C@@H](C)CC[C@H]1c1nc2ccc3cc(C#CC#Cc4ccc5c(ccc6nc([C@@H]7CC[C@H](C)N7C(=O)C(NC(=O)OC)C7CCOCC7)[nH]c65)c4)ccc3c2[nH]1)C1CCOCC1 (some centres unmarked) | <10 fold | <10 fold |
| COC(=O)N[C@H](C(=O)N1CCC[C@H]1c1nc2cc(-c3ccc4c(ccc5[nH]c([C@@H]6CCCN6C(=O)[C@@H](NC(=O)OC)C(C)C)nc54)c3)ccc2[nH]1)C(C)C | >100 fold | >10 fold |
| COC(=O)N[C@H](C(=O)N1CCC[C@H]1c1nc2c([nH]1)CCc1cc(C#Cc3ccc4[nH]c([C@@H]5CCCN5C(=O)[C@@H](NC(=O)OC)C(C)C)nc4c3)ccc1-2)C(C)C | >100 fold | >100 fold |
| CN(C)[C@@H](C(=O)N1CCC[C@H]1C(=O)Nc1cccc(-c2ncc(-c3ccc4nc([C@@H]5CCCN5C(=O)[C@@H](c5ccccc5)N(C)C)[nH]c4c3)o2)c1)c1ccccc1 | <10 fold | <10 fold |
| Cc1nc2cccc(-c3ncc(-c4ccc5nc([C@@H]6CCCN6C(=O)[C@@H](c6ccccc6)N(C)C)[nH]c5c4)o3)c2[nH]1 | <10 fold | <10 fold |
| COC(=O)N[C@@H](C(=O)N1CCC[C@H]1c1ncc(C#CC#Cc2cnc([C@@H]3CCCN3C(=O)[C@H](NC(=O)OC)c3ccccc3)[nH]2)[nH]1)c1ccccc1 | <10 fold | <10 fold |

Reference: patent US20160158200A1, “Combinations of Hepatitis C Virus Inhibitors” (priority 2013, published 2016)
